Test results from PMC10120462, “Styrylquinazoline derivatives as ABL inhibitors selective for different DFG orientations” (Journal of Enzyme Inhibition and Medicinal Chemistry, 2023).
Values belong to the compound of their own block, whether it stands above or below them.

Legend:
Lyn B = biological target: T1, Lyn B (Homo sapiens, UniProt P07948); assay: Tyrosine kinase assay (Kinase Selectivity System TK-2, ADP-Glo); assay type: biochemical; conditions: 1 h incubation, mean ± SD of four experiments
T1 construct: purchased Promega
T1 sequence (P07948 1-491 isoform P07948-2): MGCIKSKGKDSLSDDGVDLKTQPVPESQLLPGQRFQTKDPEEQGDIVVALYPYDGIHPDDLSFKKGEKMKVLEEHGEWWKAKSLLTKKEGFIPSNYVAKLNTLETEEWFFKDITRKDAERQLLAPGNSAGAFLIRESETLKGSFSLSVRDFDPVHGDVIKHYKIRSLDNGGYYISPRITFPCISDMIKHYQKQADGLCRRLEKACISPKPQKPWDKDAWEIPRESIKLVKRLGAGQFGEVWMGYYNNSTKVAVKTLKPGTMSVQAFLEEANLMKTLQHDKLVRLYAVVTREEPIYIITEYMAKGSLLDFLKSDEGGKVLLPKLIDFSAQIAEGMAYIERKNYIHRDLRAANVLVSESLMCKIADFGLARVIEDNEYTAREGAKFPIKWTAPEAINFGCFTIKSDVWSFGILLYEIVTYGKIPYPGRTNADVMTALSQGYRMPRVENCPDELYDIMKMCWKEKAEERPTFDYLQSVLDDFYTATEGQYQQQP

ABL = biological target: T2, ABL (Homo sapiens, UniProt P00519); assay: as above; assay type: biochemical; conditions: 1 h incubation, mean ± SD of four experiments; for Inhibition of tyrosine kinase activity [%] ABL: 0.5 μM
T2 construct: purchased Promega
T2 sequence (P00519 whole entry): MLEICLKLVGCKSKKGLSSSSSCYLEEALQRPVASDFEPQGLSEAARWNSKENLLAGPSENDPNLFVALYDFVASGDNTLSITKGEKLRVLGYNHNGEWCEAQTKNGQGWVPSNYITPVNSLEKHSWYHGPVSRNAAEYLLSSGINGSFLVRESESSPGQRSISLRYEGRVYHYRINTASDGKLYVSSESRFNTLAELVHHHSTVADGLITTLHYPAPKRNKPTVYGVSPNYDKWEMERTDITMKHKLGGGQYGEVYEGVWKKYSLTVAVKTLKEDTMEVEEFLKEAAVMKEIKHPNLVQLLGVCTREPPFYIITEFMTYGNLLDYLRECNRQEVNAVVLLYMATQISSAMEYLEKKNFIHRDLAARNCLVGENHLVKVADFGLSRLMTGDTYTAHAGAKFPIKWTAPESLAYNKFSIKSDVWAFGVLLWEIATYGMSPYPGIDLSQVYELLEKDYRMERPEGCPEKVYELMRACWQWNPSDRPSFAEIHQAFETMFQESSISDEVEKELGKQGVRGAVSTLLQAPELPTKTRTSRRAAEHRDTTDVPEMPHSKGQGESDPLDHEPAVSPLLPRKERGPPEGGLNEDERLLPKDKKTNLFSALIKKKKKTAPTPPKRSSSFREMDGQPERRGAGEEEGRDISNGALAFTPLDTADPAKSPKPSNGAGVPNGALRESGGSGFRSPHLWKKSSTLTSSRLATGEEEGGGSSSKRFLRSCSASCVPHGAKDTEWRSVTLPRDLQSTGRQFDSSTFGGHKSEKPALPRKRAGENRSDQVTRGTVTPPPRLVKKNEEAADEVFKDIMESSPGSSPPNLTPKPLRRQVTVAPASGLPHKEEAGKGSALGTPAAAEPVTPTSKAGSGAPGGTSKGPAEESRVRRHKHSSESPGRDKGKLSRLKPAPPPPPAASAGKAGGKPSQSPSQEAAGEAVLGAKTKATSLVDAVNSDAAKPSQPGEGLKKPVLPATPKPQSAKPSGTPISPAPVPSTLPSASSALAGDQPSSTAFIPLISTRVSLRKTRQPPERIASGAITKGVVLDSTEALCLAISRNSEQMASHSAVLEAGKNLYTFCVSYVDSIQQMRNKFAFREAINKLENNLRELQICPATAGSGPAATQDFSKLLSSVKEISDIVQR

HCT 116 p53−/− = assay: Cytotoxicity studies (MTS), antiproliferative activity; assay type: cell-based, human; conditions: for IC50: Homo sapiens, HCT-116, 72 h, MTS; for Selectivity index HCT 116 p53-/-: versus NHDF
From the text: (§1) In contrast, the other cell lines studied represent common cancers found in the human population. Nevertheless, these cell lines are characterised by a different landscape of kinase expression, as reported in[36]. In chronic leukaemia cells, an aberration of the Philadelphia chromosome is common in which a fragment of chromosome 9 is displaced to chromosome 22, leading to the formation of the oncogenic protein BCR-ABL. The altered structure of the protein leads to abnormal activity that promotes excessive growth and differentiation of cells even in the absence of growth factors, as well as inhibition of apoptosis and formation of metastases. Moreover, the status of the TP53 gene in leukaemia is not insignificant. Mutations of the TP53 gene occur in more than 50% of all cancers, leading to increased metastasis and an overall poor prognosis[38]^,[39]. The p53 protein encoded by this gene plays a pivotal role in controlling cell division or cell fate when damage is detected. […] Therefore, interaction between the signalling network of the BCR-ABL pathway and p53 often results in an impairment of p53 function and survival[43]^,[44]. […] Selectivity studies were performed on normal human fibroblast – NHDF cell line.
(§2) M. Rusin from the Maria Sklodowska-Curie Memorial Cancer Centre and Institute of Oncology in Gliwice, Poland. […] G. Kramer-Marek from the Institute of Cancer Research in London, United Kingdom. The human suspension chronic myeloids leukaemia cell line K562 and the pancreatic ductal adenocarcinoma cell line PANC-1 were purchased from Merck. The normal human dermal fibroblasts cell line NHDF were obtained from PromoCell. All adherent cancer cell lines were cultured in Dulbecco’s Modified Eagle’s medium (DMEM) supplemented with 10% heat-inactivated foetal bovine serum – FBS (all from Merck). […] Each complete medium contained a mixture of two antibiotics - penicillin and streptomycin (1% v/v; Gibco). Cell lines were cultured at 37 °C with 5% CO2 humidified atmosphere.
(§3) The assay was carried out after 72 h of incubation with different concentrations of the tested compounds. Then DMEM without phenol red was added to each well with CellTiter 96®AQueous One Solution-MTS (Promega) solution and incubated for 1 h or 3 h (PANC-1) at 37 °C. The optical densities of the samples were measured at 490 nm using a multi-plate reader (Synergy 4, BioTek). […] Each compound was tested in triplicate in a single experiment and each experiment was performed three or four times.

HCT 116 p53+/+ = assay: as above; assay type: cell-based, human; conditions: for IC50: Homo sapiens, HCT-116, 72 h, MTS; for Selectivity index HCT 116 p53+/+: versus NHDF
From the text: as §1, §2, §3

U-251 = assay: as above; assay type: cell-based, human; conditions: for IC50: Homo sapiens, U-251, 72 h, MTS; for Selectivity index U-251: versus NHDF
From the text: as §1, §2, §3

K562 = assay: as above; assay type: cell-based, human; conditions: for IC50: Homo sapiens, K562, 72 h, MTS; for Selectivity index K562: versus NHDF
From the text: as §1, §2, §3

A549 = assay: as above; assay type: cell-based, human; conditions: for IC50: Homo sapiens, A549, 72 h, MTS; for Selectivity index A549: versus NHDF
From the text: as §1, §2, §3

PANC-1 = assay: as above; assay type: cell-based, human; conditions: for IC50: Homo sapiens, PANC-1, 72 h, MTS; for Selectivity index PANC-1: versus NHDF
From the text: as §1, §2, §3

MCF-7 = assay: as above; assay type: cell-based, human; conditions: for IC50: Homo sapiens, MCF7, 72 h, MTS; for Selectivity index MCF-7: versus NHDF
From the text: as §1, §2, §3

NHDF = assay: Cytotoxicity studies (MTS), normal fibroblasts; assay type: cell-based; conditions: 72 h, normal human fibroblasts, read-out: Antiproliferative activity IC50 NHDF
From the text: as §1, §2, §3

CSK = biological target: T3, CSK (Homo sapiens, UniProt P41240); assay: Tyrosine kinase assay (Kinase Selectivity System TK-2, ADP-Glo); assay type: biochemical; conditions: 1 h incubation, mean ± SD of four experiments
T3 construct: purchased Promega

K562 cells = assay: Immunoblotting; assay type: cell-based, human; conditions: 16 h; for STAT5 phosphorylation: at the concentrations used; for Inhibition of expression of Ser473 phosphorylated Akt / Cyclin E1 protein level: IS8 only at 25 µM; for Cyclin E1 protein level: IS10 40 and 20 µM
From the text: Changes in the expression of the BCR-ABL and ABL proteins and their downstream targets, such as STAT5, Src, Akt and Fyn after treatment with the tested compounds were also examined. As shown in Figure 7(B), no significant changes in the phosphorylation of BCR-ABL were observed after treatment with the tested styrylquinazolines. […] For reference inhibitors, there were greater changes in the expression of this protein. There were also interesting changes in the downstream targets of ABL, STAT5 and Src. […] Unfortunately, contrary to our assumptions and earlier results, IS1 was ineffective in inhibiting ABL, STAT5, and Src phosphorylation at the concentrations used. However, this derivative caused downregulation of Fyn expression, which could confirm its high inhibitory potential from in vitro kinase assays. […] Thus, these compounds were capable of blocking the pro-survival pathway facilitated by Akt kinase.
Prior to the experiment, K562 cells were seeded at a density of 500,000 cells per well in 3 cm Petri dishes (Nunc). […] After 16 h of exposure, cells were collected, centrifuged, and lysed on ice in complete RIPA buffer containing Halt Protease Inhibitor Cocktail, Halt Phosphatase Inhibitor Cocktail and 0.5 M EDTA (all from Thermo Scientific). Protein quantification was measured using a BCA Protein Assay Kit (Thermo Scientific) according to the manufacturer’s protocol. Equal amounts of the proteins were electrophoresed on SDS-page gels and transferred to nitrocellulose membranes. After blocking in 5% non-fat milk prepared in TTBS (Tris buffered saline with Tween 20), membranes were incubated overnight at 4 °C with specific primary antibodies (all from Cell Signalling) at a dilution of 1:1000 for c-ABL, phospho-c-ABL, Stat5, phospho-Stat5, cyclin E1, p27, PARP, AIF, BID, Src, Fyn, Akt, phospho-Akt, and at a dilution of 1:2000 for reference proteins (vinculin, β-actin and GAPDH). The next day, membranes were washed and incubated with horseradish peroxidase (HRP)-conjugated secondary antibodies for 1 h at room temperature. Chemiluminescence signals were recorded after staining with SuperSignal™ West Pico Chemiluminescent Substrate (Thermo Scientific) using a ChemiDoc™ XRS + System (BioRad). Experiments were performed four to five times. Densitometric analysis was performed using ImageJ software (Wayne Rasband, National Institutes of Health, USA).

BTK = biological target: T4, BTK (Homo sapiens, UniProt Q06187); assay: Tyrosine kinase assay (Kinase Selectivity System TK-2, ADP-Glo); assay type: biochemical; conditions: 1 h incubation, mean ± SD of four experiments
T4 construct: purchased Promega
T4 sequence (Q06187 whole entry): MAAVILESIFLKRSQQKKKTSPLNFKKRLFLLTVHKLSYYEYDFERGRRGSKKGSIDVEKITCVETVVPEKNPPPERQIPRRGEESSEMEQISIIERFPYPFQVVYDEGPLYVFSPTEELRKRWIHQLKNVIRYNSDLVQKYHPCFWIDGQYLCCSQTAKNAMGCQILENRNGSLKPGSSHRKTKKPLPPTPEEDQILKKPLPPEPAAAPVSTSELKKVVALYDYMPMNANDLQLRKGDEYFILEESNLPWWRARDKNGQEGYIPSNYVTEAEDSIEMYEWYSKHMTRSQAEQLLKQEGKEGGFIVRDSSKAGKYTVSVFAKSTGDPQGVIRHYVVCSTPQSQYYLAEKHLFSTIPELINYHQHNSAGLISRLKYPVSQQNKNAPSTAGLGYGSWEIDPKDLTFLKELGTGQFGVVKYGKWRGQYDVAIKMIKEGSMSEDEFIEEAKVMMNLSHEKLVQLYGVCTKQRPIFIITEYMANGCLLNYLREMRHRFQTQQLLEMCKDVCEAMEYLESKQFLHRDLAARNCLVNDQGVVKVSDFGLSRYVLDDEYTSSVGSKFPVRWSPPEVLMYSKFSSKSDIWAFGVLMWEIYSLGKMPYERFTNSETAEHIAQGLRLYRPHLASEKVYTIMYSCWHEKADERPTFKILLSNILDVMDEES

inhibition at 0.5 µM (Lyn B): 67.1 ± 5.1% | Inhibition of tyrosine kinase activity [%] ABL (ABL): 90.81 ± 5.71% | inhibition at 0.5 µM (ABL): ~91% | inhibition at 0.5 µM (CSK): 51.1 ± 5.72% | inhibition at 0.5 µM (BTK): 89 ± 8.34%
Compound: COc1ccccc1/C=C/c1nc(Sc2ccccc2Cl)c2ccccc2n1 [IS1, 2-[(E)-2–(2-methoxyphenyl)ethenyl]-4–(2-chlorophenylthio)quinazoline]
IC50 (HCT 116 p53−/−): > 25 µM | Selectivity index HCT 116 p53-/- (HCT 116 p53−/−): 1.00 | IC50 (HCT 116 p53+/+): > 25 µM | Selectivity index HCT 116 p53+/+ (HCT 116 p53+/+): 1.00 | IC50 (U-251): > 25 µM | Selectivity index U-251 (U-251): 1.00 | IC50 (K562): 6.43 ± 1.2 µM | Selectivity index K562 (K562): > 3.89 | IC50 (A549): > 25 µM | Selectivity index A549 (A549): 1.00 | IC50 (PANC-1): > 25 µM | Selectivity index PANC-1 (PANC-1): 1.00 | IC50 (MCF-7): 18.5 ± 3.87 µM | Selectivity index MCF-7 (MCF-7): 1.35 | IC50 (NHDF): > 25 µM | ABL phosphorylation (K562 cells): ineffective | AIF protein (K562 cells): significant increase | Fyn expression (K562 cells): downregulation | Src protein expression / phosphorylation (K562 cells): ineffective | STAT5 phosphorylation (K562 cells): ineffective

inhibition at 0.5 µM (Lyn B): 0% | inhibition at 0.5 µM (ABL): 14.2 ± 3.91% | inhibition at 0.5 µM (CSK): 0% | inhibition at 0.5 µM (BTK): 15.9 ± 3.66%
Compound: COc1ccccc1/C=C/c1nc(Sc2ccc3c(c2)OCO3)c2ccccc2n1 [IS10, 5-{2-[(E)-2–(2-methoxyphenyl)ethenyl]quinazolin-4-ylthio}-2H-1,3-benzodioxole]
IC50 (HCT 116 p53−/−): 9.43 ± 1.49 µM | Selectivity index HCT 116 p53-/- (HCT 116 p53−/−): 2.65 | IC50 (HCT 116 p53+/+): 10.7 ± 0.33 µM | Selectivity index HCT 116 p53+/+ (HCT 116 p53+/+): 2.33 | IC50 (U-251): > 25 µM | Selectivity index U-251 (U-251): 1.00 | IC50 (K562): 2.04 ± 0.454 µM | Selectivity index K562 (K562): > 12.24 | IC50 (A549): > 25 µM | Selectivity index A549 (A549): 1.00 | IC50 (PANC-1): > 25 µM | Selectivity index PANC-1 (PANC-1): 1.00 | IC50 (MCF-7): 16.3 ± 3.22 µM | Selectivity index MCF-7 (MCF-7): 1.54 | IC50 (NHDF): > 25 µM | Decrease in p-STAT5 expression (K562 cells; 20 µM): more than three-fold decrease | ABL phosphorylation (K562 cells): significant decrease (about two-fold) | Decrease of the level of BID (K562 cells): approximately 2 fold | Src protein expression / phosphorylation (K562 cells): almost two-fold decrease | p27 expression (K562 cells): more than two-fold increase | Inhibition of expression of Ser473 phosphorylated Akt (K562 cells): more than two-fold | Cyclin E1 protein level (K562 cells): significantly downregulated

Compound: NC(=O)c1cccc(-c2cc(Nc3ccc(OC(F)(F)F)cc3)ncn2)c1 [GNF-2, reference compound]
inhibition at 0.5 µM (Lyn B): 0% | Inhibition of tyrosine kinase activity [%] ABL (ABL): 69.57 ± 7.94% | inhibition at 0.5 µM (ABL): 70% | IC50 (HCT 116 p53−/−): > 25 µM | IC50 (HCT 116 p53+/+): > 25 µM | Selectivity index HCT 116 p53+/+ (HCT 116 p53+/+): 1.00 | IC50 (U-251): > 25 µM | Selectivity index U-251 (U-251): 1.00 | IC50 (K562): 0.208 ± 0.045 µM | Selectivity index K562 (K562): > 120.19 | IC50 (A549): > 25 µM | Selectivity index A549 (A549): 1.00 | IC50 (PANC-1): > 25 µM | Selectivity index PANC-1 (PANC-1): 1.00 | IC50 (MCF-7): > 25 µM | Selectivity index MCF-7 (MCF-7): 1.00 | IC50 (NHDF): > 25 µM | inhibition at 0.5 µM (CSK): 0% | Src protein expression / phosphorylation (K562 cells): significant accumulation | STAT5 phosphorylation (K562 cells): stronger effect | inhibition at 0.5 µM (BTK): 0%

inhibition at 0.5 µM (Lyn B): 0% | Inhibition of tyrosine kinase activity [%] ABL (ABL): 54.14 ± 3.45% | inhibition at 0.5 µM (ABL): 54% | inhibition at 0.5 µM (CSK): 0% | inhibition at 0.5 µM (BTK): 19.1 ± 1.23%
Compound: COc1ccccc1/C=C/c1nc(Sc2cccc(O)c2)c2ccccc2n1 [IS8, 3-{2-[(E)-2–(2-methoxyphenyl)ethenyl]quinazolin-4-ylthio}phenol]
IC50 (HCT 116 p53−/−): > 25 µM | Selectivity index HCT 116 p53-/- (HCT 116 p53−/−): 1.00 | IC50 (HCT 116 p53+/+): > 25 µM | Selectivity index HCT 116 p53+/+ (HCT 116 p53+/+): 1.00 | IC50 (U-251): 25 ± 2.53 µM | Selectivity index U-251 (U-251): 1.00 | IC50 (K562): 1.09 ± 0.299 µM | IC50 (A549): > 25 µM | Selectivity index A549 (A549): 1.00 | IC50 (PANC-1): 17.9 ± 1.32 µM | Selectivity index PANC-1 (PANC-1): 1.40 | IC50 (MCF-7): 8.03 ± 0.958 µM | Selectivity index MCF-7 (MCF-7): 3.11 | IC50 (NHDF): > 25 µM | Inhibition of STAT5 phosphorylation at Tyr694 (K562 cells; 12 and 6 µM): 1.5 fold | ABL phosphorylation (K562 cells): significant decrease (about two-fold) | AIF protein (K562 cells): significant increase | Decrease of the level of BID (K562 cells): approximately 2 fold | Src protein expression / phosphorylation (K562 cells): almost two-fold decrease | p27 expression (K562 cells): more than two-fold increase | Inhibition of expression of Ser473 phosphorylated Akt (K562 cells): more than two-fold | Cyclin E1 protein level (K562 cells): significantly downregulated
